ChEMBL document CHEMBL4819069, “Discovery of multifunctional anti-Alzheimer's agents with a unique mechanism of action including inhibition of the enzyme butyrylcholinesterase and γ-aminobutyric acid transporters” (Eur J Med Chem, 2021)
The source made the active and inactive calls. The rule behind the calls is not given here.

Assays:
[1] = target: Cholinesterase (Equus caballus, UniProt P81908)
Description: Inhibition of equine serum BuChE using butyrylthiocholine as substrate preincubated for 5 mins followed by substrate addition and measured after 5 mins by Ellman's method

[2] = Neurotoxicity against mouse HT22 cells assessed as cell viability at 30 uM incubated for 24 hrs by MTT assay; format: cell-based, HT-22; details: for Activity: ht-22, 24 h, 30 µM
[3] = Neurotoxicity against mouse HT22 cells assessed as cell viability at 10 uM incubated for 24 hrs by MTT assay; format: cell-based, HT-22; details: for Activity: ht-22, 24 h, 10 µM
[4] = target: Acetylcholinesterase (Electrophorus electricus) (UniProt O42275); assay: Inhibition of electric eel AChE at 10 uM using acetylthiocholine as substrate preincubated for 5 mins followed by substrate addition and measured after 5 mins by Ellman's method relative to control; details: time 10.0 min
Acetylcholinesterase (Electrophorus electricus), sequence (O42275 24-633 limits assumed): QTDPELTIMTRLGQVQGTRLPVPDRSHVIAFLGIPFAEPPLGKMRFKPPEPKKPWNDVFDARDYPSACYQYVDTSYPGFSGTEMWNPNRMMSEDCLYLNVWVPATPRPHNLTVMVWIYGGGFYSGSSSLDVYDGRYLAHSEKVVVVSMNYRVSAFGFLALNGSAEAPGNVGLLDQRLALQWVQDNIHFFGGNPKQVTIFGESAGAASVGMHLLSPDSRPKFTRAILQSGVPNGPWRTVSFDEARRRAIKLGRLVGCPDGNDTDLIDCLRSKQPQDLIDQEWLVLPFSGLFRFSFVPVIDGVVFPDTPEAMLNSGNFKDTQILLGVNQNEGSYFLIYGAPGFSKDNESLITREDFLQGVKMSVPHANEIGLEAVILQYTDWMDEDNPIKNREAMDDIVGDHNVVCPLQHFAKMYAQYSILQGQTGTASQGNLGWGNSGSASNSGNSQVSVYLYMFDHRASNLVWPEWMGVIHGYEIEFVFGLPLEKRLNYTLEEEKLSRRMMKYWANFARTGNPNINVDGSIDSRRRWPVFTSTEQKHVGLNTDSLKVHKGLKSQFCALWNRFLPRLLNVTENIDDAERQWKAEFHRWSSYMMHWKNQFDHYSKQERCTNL

[5] = target: Amyloid-beta precursor protein (Homo sapiens) (UniProt P05067); assay: Inhibition of HFIP-pretreated amyloid beta (1 to 42) (unknown origin) aggregation at 10 uM after 36 to 48 hrs by thioflavin-T fluorescence assay relative to control; details: time 36-48 hrs
Amyloid-beta precursor protein (Homo sapiens), sequence (P05067 whole entry): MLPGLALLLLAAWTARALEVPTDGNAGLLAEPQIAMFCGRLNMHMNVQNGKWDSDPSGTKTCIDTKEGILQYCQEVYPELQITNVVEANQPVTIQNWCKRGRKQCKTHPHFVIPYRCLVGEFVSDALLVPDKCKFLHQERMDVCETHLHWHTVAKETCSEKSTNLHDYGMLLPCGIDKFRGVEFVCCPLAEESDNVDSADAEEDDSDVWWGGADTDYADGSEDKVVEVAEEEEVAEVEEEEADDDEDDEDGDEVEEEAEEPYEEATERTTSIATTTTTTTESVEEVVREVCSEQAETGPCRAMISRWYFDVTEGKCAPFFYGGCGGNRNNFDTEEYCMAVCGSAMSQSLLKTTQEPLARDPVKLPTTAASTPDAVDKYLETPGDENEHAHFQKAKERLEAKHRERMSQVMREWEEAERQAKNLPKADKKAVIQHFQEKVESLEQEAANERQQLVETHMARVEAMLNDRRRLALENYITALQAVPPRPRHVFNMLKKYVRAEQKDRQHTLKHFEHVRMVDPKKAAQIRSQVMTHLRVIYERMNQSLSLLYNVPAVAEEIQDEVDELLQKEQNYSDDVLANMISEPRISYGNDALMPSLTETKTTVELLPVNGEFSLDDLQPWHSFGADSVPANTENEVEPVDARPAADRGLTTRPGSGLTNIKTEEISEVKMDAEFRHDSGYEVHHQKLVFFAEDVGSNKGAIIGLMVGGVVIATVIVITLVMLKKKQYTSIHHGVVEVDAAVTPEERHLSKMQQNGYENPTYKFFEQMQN

[6] = target: T1, Beta-secretase 1 (Homo sapiens, UniProt P56817)
T1 sequence (P56817 whole entry): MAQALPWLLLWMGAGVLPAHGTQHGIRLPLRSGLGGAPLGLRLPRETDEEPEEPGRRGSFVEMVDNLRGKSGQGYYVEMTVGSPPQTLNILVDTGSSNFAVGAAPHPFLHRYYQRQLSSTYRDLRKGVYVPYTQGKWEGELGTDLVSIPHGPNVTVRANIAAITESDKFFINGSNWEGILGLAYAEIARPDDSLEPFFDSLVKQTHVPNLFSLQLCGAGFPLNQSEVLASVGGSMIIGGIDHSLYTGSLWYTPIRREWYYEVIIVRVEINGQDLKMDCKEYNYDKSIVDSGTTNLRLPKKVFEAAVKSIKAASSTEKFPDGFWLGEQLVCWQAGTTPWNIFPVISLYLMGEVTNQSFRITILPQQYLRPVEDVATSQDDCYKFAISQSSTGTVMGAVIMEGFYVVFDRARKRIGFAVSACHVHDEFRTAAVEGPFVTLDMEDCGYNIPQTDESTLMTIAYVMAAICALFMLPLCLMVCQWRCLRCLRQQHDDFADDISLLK

[7] = target: T2, Cholinesterase (Homo sapiens, UniProt P06276)
T2 sequence (P06276 whole entry): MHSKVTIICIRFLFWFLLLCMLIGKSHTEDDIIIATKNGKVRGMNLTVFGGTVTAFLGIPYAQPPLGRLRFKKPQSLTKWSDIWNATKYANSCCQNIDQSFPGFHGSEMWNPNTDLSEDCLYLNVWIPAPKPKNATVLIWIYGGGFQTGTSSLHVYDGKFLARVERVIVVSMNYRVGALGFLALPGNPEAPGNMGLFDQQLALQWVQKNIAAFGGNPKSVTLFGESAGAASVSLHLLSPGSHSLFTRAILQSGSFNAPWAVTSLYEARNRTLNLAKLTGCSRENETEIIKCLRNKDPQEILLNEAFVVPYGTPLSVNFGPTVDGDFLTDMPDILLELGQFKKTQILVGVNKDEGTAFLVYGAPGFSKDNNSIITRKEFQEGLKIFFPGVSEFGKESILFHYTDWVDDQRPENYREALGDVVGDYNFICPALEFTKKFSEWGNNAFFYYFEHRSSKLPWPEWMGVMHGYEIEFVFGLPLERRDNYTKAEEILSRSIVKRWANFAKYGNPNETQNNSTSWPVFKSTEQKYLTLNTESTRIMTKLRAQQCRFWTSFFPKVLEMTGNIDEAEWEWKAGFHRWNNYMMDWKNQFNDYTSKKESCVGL
Description: Inhibition of human BuchE using butyrylthiocholine as substrate preincubated for 5 mins followed by substrate addition and measured after 5 mins by Ellman's method

[8] = target: Cholinesterase (Equus caballus) (UniProt P81908); assay: Inhibition of equine serum BuChE at 10 uM using butyrylthiocholine as substrate preincubated for 5 mins followed by substrate addition and measured after 5 mins by Ellman's method relative to control; details: time 10.0 min
Cholinesterase (Equus caballus), sequence (P81908 whole entry): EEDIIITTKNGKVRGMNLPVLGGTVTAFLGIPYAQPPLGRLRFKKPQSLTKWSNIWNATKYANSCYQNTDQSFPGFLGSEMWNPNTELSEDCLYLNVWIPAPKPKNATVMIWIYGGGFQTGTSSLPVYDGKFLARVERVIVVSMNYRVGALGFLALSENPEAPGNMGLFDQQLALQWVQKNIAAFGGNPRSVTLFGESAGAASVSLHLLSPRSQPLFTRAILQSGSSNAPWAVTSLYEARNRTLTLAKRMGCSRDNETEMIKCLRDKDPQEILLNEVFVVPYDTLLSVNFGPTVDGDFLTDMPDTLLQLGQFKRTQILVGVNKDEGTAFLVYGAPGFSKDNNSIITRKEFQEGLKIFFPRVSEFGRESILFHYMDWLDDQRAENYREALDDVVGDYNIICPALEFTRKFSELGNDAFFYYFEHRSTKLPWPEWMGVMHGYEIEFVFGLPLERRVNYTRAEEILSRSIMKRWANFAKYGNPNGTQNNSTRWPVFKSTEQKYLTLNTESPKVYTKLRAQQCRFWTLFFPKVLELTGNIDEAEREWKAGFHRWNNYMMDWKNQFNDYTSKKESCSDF

[9] = target: T2, Cholinesterase; assay: Inhibition of human BuchE at 1 uM using butyrylthiocholine as substrate preincubated for 5 mins followed by substrate addition and measured after 5 mins by Ellman's method relative to control; details: time 10.0 min
[10] = target: T1, Beta-secretase 1; details: dose 50.0 µM, time 60.0 min
[11] = target: T3, GABA transporter 4 (Mus musculus) (UniProt P31650); assay: Inhibition of mouse GAT3 expressed in HEK293 cell line assessed as reduction in [3H]GABA uptake at 100 uM incubated for 10 mins relative to control; format: cell-based
T3 sequence (whole entry): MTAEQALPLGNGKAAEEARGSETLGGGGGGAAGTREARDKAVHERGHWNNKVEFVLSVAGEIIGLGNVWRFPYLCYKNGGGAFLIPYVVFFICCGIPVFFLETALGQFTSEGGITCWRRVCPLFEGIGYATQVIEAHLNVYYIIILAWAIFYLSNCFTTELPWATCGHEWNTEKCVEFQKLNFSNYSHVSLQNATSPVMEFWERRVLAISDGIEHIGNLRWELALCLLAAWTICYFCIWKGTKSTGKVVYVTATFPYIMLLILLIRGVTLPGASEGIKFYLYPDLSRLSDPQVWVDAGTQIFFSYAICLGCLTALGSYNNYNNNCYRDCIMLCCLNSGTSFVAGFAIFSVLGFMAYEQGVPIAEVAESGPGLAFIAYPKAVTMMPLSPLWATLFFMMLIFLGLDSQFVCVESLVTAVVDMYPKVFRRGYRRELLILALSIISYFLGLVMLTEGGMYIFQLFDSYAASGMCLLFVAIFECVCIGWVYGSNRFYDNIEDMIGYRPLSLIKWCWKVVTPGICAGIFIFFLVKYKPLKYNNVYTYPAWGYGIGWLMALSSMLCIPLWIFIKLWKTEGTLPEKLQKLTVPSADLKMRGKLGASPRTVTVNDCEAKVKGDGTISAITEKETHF

[12] = Hepatotoxicity in human HepG2 cells at 1 uM incubated for 72 hrs by MTS assay; format: cell-based; details: hepg2, 72 h
[13] = target: T3, GABA transporter 4 (Mus musculus); assay: Inhibition of mouse GAT4 expressed in HEK293 cell line assessed as reduction in [3H]GABA uptake at 100 uM incubated for 10 mins relative to control; format: cell-based
[14] = target: Acetylcholinesterase (Electrophorus electricus, UniProt O42275); assay: Inhibition of electric eel AChE using acetylthiocholine as substrate preincubated for 5 mins followed by substrate addition and measured after 5 mins by Ellman's method
[15] = Hepatotoxicity in human HepG2 cells at 50 to 100 uM incubated for 72 hrs by MTS assay; format: cell-based; details: hepg2, 72 h, dose 50-100 µM
[16] = target: Cholinesterase (Equus caballus) (UniProt P81908); assay: Noncompetitive inhibition of equine serum BuChE assessed as decrease in Vmax with constant Km using varying concentrations of BTC as substrate by Lineweaver-burk and Cornish-Bowden plot analysis
[17] = target: T4, Sodium- and chloride-dependent GABA transporter 1 (Mus musculus, UniProt P31648); assay: Inhibition of mouse GAT1 expressed in HEK293 cell line assessed as reduction in [3H]GABA uptake incubated for 10 mins; format: cell-based
[18] = target: Cytochrome P450 2D6 (Homo sapiens, UniProt P10635); assay: Inhibition of CYP2D6 (unknown origin) at 10 uM; format: ADME
Cytochrome P450 2D6, sequence (P10635 whole entry): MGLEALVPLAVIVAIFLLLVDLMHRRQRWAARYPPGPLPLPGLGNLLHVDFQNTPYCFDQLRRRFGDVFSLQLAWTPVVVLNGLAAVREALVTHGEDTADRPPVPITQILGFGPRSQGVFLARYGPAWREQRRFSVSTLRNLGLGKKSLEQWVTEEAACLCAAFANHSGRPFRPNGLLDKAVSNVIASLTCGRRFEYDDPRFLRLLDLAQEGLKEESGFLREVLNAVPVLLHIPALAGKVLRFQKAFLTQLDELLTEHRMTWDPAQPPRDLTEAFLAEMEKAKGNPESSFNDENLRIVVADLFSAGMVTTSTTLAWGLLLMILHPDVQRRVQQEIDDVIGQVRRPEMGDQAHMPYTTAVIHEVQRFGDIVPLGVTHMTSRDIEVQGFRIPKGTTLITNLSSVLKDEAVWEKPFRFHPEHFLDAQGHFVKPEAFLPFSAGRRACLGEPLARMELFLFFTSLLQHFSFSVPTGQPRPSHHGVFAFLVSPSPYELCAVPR

[19] = target: Cytochrome P450 3A4 (Homo sapiens, UniProt P08684); assay: Inhibition of CYP3A4 (unknown origin) at 10 uM; format: ADME
[20] = Metabolic stability in human liver microsomes assessed as parent compound remaining after 120 mins in presence of NADPH regeneration system by UPLC/MS anlaysis; format: ADME, Microsome; details: read-out: Stabilty
[21] = target: Sodium- and chloride-dependent GABA transporter 1 (Mus musculus) (UniProt P31648); assay: Inhibition of NO711 binding to mouse GAT1 expressed in HEK cell membranes at 100 uM incubated for 40 mins in presence of NO711 by LC-ESI-MS/MS analysis relative to control; details: Membrane
[22] = target: Sodium- and chloride-dependent GABA transporter 1 (Mus musculus) (UniProt P31648); assay: Inhibition of mouse GAT1 expressed in HEK293 cell line assessed as reduction in [3H]GABA uptake at 100 uM incubated for 10 mins relative to control; format: cell-based
[23] = target: T5, GABA transporter 4 (Mus musculus, UniProt P31650); assay: Inhibition of mouse GAT4 expressed in HEK293 cell line assessed as reduction in [3H]GABA uptake incubated for 10 mins; format: cell-based
T5 sequence (P31650 whole entry): T3 sequence (whole entry)

[24] = target: Microtubule-associated protein tau (Homo sapiens) (UniProt P10636); assay: Inhibition of tau aggregation (unknown origin) at 10 uM after 72 hrs by thioflavin-T fluorometric assay relative to control
[25] = target: T4, Sodium- and chloride-dependent GABA transporter 1; assay: Inhibition of NO711 binding to mouse GAT1 expressed in HEK cell membranes incubated for 40 mins in presence of NO711 by LC-ESI-MS/MS analysis; design: species or system Membrane
[26] = target: T6, GABA transporter 3 (Mus musculus) (UniProt P31649); assay: Inhibition of mouse GAT2 expressed in HEK293 cell line assessed as reduction in [3H]GABA uptake at 100 uM incubated for 10 mins relative to control; format: cell-based
T6 sequence (whole entry): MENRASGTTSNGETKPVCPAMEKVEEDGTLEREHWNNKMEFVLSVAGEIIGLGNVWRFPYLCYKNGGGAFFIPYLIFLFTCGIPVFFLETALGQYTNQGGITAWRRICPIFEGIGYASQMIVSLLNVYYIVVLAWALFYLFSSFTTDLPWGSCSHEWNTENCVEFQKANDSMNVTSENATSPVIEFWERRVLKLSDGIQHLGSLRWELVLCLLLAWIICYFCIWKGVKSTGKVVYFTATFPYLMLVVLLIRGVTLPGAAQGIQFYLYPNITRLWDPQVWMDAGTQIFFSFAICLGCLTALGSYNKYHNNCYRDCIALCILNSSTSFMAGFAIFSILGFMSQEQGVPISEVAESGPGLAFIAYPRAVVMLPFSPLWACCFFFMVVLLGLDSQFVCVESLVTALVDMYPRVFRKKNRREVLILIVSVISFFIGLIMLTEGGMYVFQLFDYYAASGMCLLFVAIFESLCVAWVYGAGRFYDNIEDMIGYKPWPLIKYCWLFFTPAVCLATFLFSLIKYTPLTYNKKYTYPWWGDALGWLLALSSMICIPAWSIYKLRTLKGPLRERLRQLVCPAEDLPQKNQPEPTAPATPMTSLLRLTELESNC

Cholinesterase (Equus caballus, UniProt P81908), sequence (P81908 whole entry): as the sequence (P81908 whole entry) above

With `CC(C)(C)c1ccc(CNCC(O)[C@H](Cc2ccccc2)NC(=O)CC(c2ccccc2)c2ccccc2)cc1` (single isomer, unassigned) the IC50 [1] was 0.17 µM, the Activity [2] was “Toxic” and the Activity [3] was “Non-Toxic”. It also gave an inhibition [4] of under 10%, an inhibition [5] of 20.5% and an IC50 [6] of 6.2 µM. The IC50 [7] was 0.88 µM.
With `O=C(CC(c1ccccc1)c1ccccc1)N[C@@H](Cc1ccccc1)[C@H](O)CNCC(F)(F)F` the inhibition [4] was under 10%, the inhibition [5] was 20.5% and the inhibition [8] was 19.2%. The inhibition [9] was under 10% and the inhibition [10] was 24.4%.
In the case of `CC(C)(C)c1cccc(CNC[C@@H](O)[C@H](Cc2ccccc2)NC(=O)C(c2ccccc2)c2ccccc2)c1`, the IC50 [1] is reported as 0.06 µM, the Activity [2] is reported as “Toxic” and the inhibition [11] is reported as 55%. The Activity [12] was “Non-Toxic”, the Activity [3] was “Non-Toxic” and the inhibition [13] was 55%. The inhibition [5] was 20.5%, the IC50 [14] was 2.86 µM and the Activity [15] was “Toxic”. For the same compound, the inhibition [16] was “Active”, the IC50 [17] was 11 µM and the “inhibition (INH)” value [18] was “Active”. The “inhibition (INH)” value [19] was “Active”, the remaining at 2 h [20] was 79.6% and the inhibition [21] was 82%. It also gave an IC50 [6] of 5.9 µM and an IC50 [7] of 0.02 µM.
Work on `CC(C)c1cccc(CNC[C@@H](O)[C@H](Cc2ccccc2)NC(=O)C(c2ccccc2)c2ccccc2)c1` yielded an IC50 [1] of 0.5 µM, an inhibition [5] of 20.5% and an IC50 [14] of 5.13 µM. The IC50 [7] was 0.08 µM and the inhibition [10] was 66%.
For `CC(C)(NC[C@@H](O)[C@H](Cc1ccccc1)NC(=O)C(c1ccccc1)c1ccccc1)c1ccccc1`, the inhibition [4] was under 10%, the inhibition [5] was 20.5% and the inhibition [8] was 45.9%. For the same compound, the inhibition [9] was under 10% and the inhibition [10] was 76.1%.
With `C[C@H](NC[C@@H](O)[C@H](Cc1ccccc1)NC(=O)C(c1ccccc1)c1ccccc1)c1ccccc1` the IC50 [1] was 1.82 µM, the inhibition [11] was 84% and the inhibition [13] was 79%. The inhibition [4] was under 10%, the inhibition [5] was 20.5% and the inhibition [9] was 14.5%. For the same compound, the inhibition [21] was 81%, the inhibition [10] was 61.7% and the inhibition [22] was 77%.
For `O[C@@H](CNCc1ccccc1)[C@H](Cc1ccccc1)NCCC(c1ccccc1)c1ccccc1`, the IC50 [1] was 0.65 µM, the Activity [3] was “Toxic” and the inhibition [4] was under 10%. The inhibition [5] was 34.7%, the IC50 [23] was 5.5 µM and the IC50 [17] was 7.59 µM. It also gave an inhibition [24] of 85.8%, an IC50 [25] of 30.2 µM and an IC50 [7] of 0.63 µM. For the same compound, the inhibition [10] was 58%.
For `O=C(CC(c1ccccc1)c1ccccc1)N[C@@H](Cc1ccccc1)[C@H](O)CNCC1CC1`, the IC50 [1] was 3.23 µM, the inhibition [11] was 51% and the inhibition [4] was under 10%. For the same compound, the inhibition [5] was 20.5%, the IC50 [23] was 35.5 µM and the IC50 [17] was 39.8 µM. The inhibition [26] was 60%, the inhibition [9] was 41.1% and the inhibition [21] was 83%. It also gave an inhibition [10] of under 10%.
For `CC(C)c1cccc(CNC[C@@H](O)[C@H](Cc2ccccc2)NC(=O)CC(c2ccccc2)c2ccccc2)c1`, the IC50 [1] was 0.65 µM, the Activity [12] was “Non-Toxic” and the inhibition [4] was 24%. For the same compound, the inhibition [5] was 20.5%, the Activity [15] was “Toxic” and the “inhibition (INH)” value [18] was “Active”. The “inhibition (INH)” value [19] was “Active”, the remaining at 2 h [20] was 67.9% and the IC50 [6] was 4.6 µM. The IC50 [7] was 0.5 µM.
With `C[C@H](NC[C@@H](O)[C@H](Cc1ccccc1)NC(=O)CC(c1ccccc1)c1ccccc1)c1ccccc1` the IC50 [1] was 8.86 µM, the viability at 24 h, 30 µM ([2]; HT22 cells, read-out: Activity) was 50% and the inhibition [11] was 69%. It also gave a viability at 24 h, 10 µM ([3]; HT22 cells, read-out: Activity) of 100%, an inhibition [13] of 55% and an inhibition [4] of under 10%. The inhibition [5] was 20.5%, the inhibition [24] was 73.1% and the inhibition [26] was 51%. The inhibition [9] was 36.4%, the inhibition [21] was 66% and the inhibition [10] was 74.1%. For the same compound, the inhibition [22] was 59%.
`O=C(CC(c1ccccc1)c1ccccc1)N[C@@H](Cc1ccccc1)[C@@H](O)CNCc1cccc(C(F)(F)F)c1` showed an inhibition [4] of 36.8%, an inhibition [5] of 20.5% and an inhibition [8] of 29.5%. The inhibition [9] was under 10% and the IC50 [6] was 8.3 µM.
Work on `CC(C)(C)CNC[C@@H](O)[C@H](Cc1ccccc1)NCC(c1ccccc1)c1ccccc1` yielded an IC50 [1] of 0.59 µM, an inhibition [4] of under 10% and an inhibition [5] of 34.7%. For the same compound, the IC50 [23] was 9.77 µM, the IC50 [17] was 26.3 µM and the IC50 [25] was 85.1 µM. For the same compound, the IC50 [7] was 0.19 µM and the inhibition [10] was 63.9%.
`O=C(N[C@@H](Cc1ccccc1)[C@H](O)CNCC(F)(F)F)C(c1ccccc1)c1ccccc1` showed an inhibition [11] of 92%, an inhibition [13] of 102% and an inhibition [4] of under 10%. It also gave an inhibition [5] of 20.5%, an inhibition [26] of 87% and an inhibition [8] of 26.3%. For the same compound, the inhibition [9] was under 10%, the inhibition [21] was 100% and the IC50 [6] was 15.4 µM. For the same compound, the inhibition [22] was 92%.
